Test results as given in PubChem BioAssay AID1963828 (Molecular Pharmacology Branch, DTP, NCI, 2024).

Test system: 991263-137-R1-J2-PDC complex spheroid viability
Assay: Anticancer human tumor 991263-137-R1-J2-PDC patient-derived colon adenocarcinoma cell line growth inhibition [POLQ]
Settings: for IC50: curve of first compound; for viability, T/C: stronger effect = lower value
Procedure, shortened: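 Complex spheroid viability model combining PDC tumour cells with endothelial (HUVEC) and MSC stromal cells. Novobiocin, ART-558 or RP6685 were tested singly and in combination with standard and investigational anticancer drugs. Each was titrated in half-log steps from near clinical Cmax, or from 10 microM where Cmax was unknown.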

[1] = second compound 0.0316 µM, first compound 0.0316 µM
[2] = second compound 0.0316 µM, first compound 0.1 µM
[3] = second compound 0.0316 µM, first compound 0.316 µM
[4] = second compound 0.0316 µM, first compound 1 µM
[5] = second compound 0.0316 µM, first compound 3.16 µM
[6] = second compound 0.0316 µM, first compound 10 µM
[7] = second compound 0.1 µM, first compound 0.0316 µM
[8] = second compound 0.1 µM, first compound 0.1 µM
[9] = second compound 0.1 µM, first compound 0.316 µM
[10] = second compound 0.1 µM, first compound 1 µM
[11] = second compound 0.1 µM, first compound 3.16 µM
[12] = second compound 0.1 µM, first compound 10 µM
[13] = second compound 0.316 µM, first compound 0.0316 µM
[14] = second compound 0.316 µM, first compound 0.1 µM
[15] = second compound 0.316 µM, first compound 0.316 µM
[16] = second compound 0.316 µM, first compound 1 µM
[17] = second compound 0.316 µM, first compound 3.16 µM
[18] = second compound 0.316 µM, first compound 10 µM
[19] = second compound 1 µM, first compound 0.0316 µM
[20] = second compound 1 µM, first compound 0.1 µM
[21] = second compound 1 µM, first compound 0.316 µM
[22] = second compound 1 µM, first compound 1 µM
[23] = second compound 1 µM, first compound 3.16 µM
[24] = second compound 1 µM, first compound 10 µM
[25] = second compound 3.16 µM, first compound 0.0316 µM
[26] = second compound 3.16 µM, first compound 0.1 µM
[27] = second compound 3.16 µM, first compound 0.316 µM
[28] = second compound 3.16 µM, first compound 1 µM
[29] = second compound 3.16 µM, first compound 3.16 µM
[30] = second compound 3.16 µM, first compound 10 µM
[31] = second compound 10 µM, first compound 0.0316 µM
[32] = second compound 10 µM, first compound 0.1 µM
[33] = second compound 10 µM, first compound 0.316 µM
[34] = second compound 10 µM, first compound 1 µM
[35] = second compound 10 µM, first compound 3.16 µM
[36] = second compound 10 µM, first compound 10 µM
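Note: spheroids exposed to compounds for 7 days before readout.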
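Throughout, for viability, T/C: 100% = DMSO vehicle control viability.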

CC1COCCN1c1cc(-c2ccnn2C)c2ccnc(-c3ccn[nH]3)c2n1 (stereo not drawn) + COC1C(OC(N)=O)C(O)C(Oc2ccc3c(O)c(NC(=O)c4ccc(O)c(CC=C(C)C)c4)c(=O)oc3c2C)OC1(C)C gave an IC50 (second compound 0.0316 µM) of 745 nM, an IC50 (second compound 0.1 µM) of 709 nM and an IC50 (second compound 0.316 µM) of 679 nM. For the same molecule, the IC50 (second compound 1 µM) was 764 nM, the IC50 (second compound 3.16 µM) was 698 nM and the IC50 (second compound 10 µM) was 1340 nM. It also gave a viability, T/C [1] of 92.3%, a viability, T/C [2] of 95.7% and a viability, T/C [3] of 76.7%. It also gave a viability, T/C [4] of 40.9%, a viability, T/C [5] of 33.4% and a viability, T/C [6] of 30%. The viability, T/C [7] was 98.2%, the viability, T/C [8] was 101% and the viability, T/C [9] was 76%. It also gave a viability, T/C [10] of 40.2%, a viability, T/C [11] of 23.1% and a viability, T/C [12] of 31.7%. The viability, T/C [13] was 97.6%, the viability, T/C [14] was 108% and the viability, T/C [15] was 63.3%. For the same molecule, the viability, T/C [16] was 46%, the viability, T/C [17] was 26.4% and the viability, T/C [18] was 23.4%. It also gave a viability, T/C [19] of 89.6%, a viability, T/C [20] of 104% and a viability, T/C [21] of 75.7%. It also gave a viability, T/C [22] of 43.1%, a viability, T/C [23] of 35.7% and a viability, T/C [24] of 29.9%. For the same molecule, the viability, T/C [25] was 88.4%, the viability, T/C [26] was 101% and the viability, T/C [27] was 69.5%. It also gave a viability, T/C [28] of 42.2%, a viability, T/C [29] of 33% and a viability, T/C [30] of 26.9%. The viability, T/C [31] was 82.1%, the viability, T/C [32] was 95% and the viability, T/C [33] was 85.7%. It also gave a viability, T/C [34] of 54.9%, a viability, T/C [35] of 36.9% and a viability, T/C [36] of 30.8%.

With CC1COCCN1c1cc(C2(S(C)(=N)=O)CC2)nc(-c2ccnc3[nH]ccc23)n1 (stereo not drawn) + COC1C(OC(N)=O)C(O)C(Oc2ccc3c(O)c(NC(=O)c4ccc(O)c(CC=C(C)C)c4)c(=O)oc3c2C)OC1(C)C the IC50 (second compound 0.0316 µM) was over 10000 nM, the IC50 (second compound 0.1 µM) was over 10000 nM and the IC50 (second compound 0.316 µM) was over 10000 nM. For the same molecule, the IC50 (second compound 1 µM) was over 10000 nM, the IC50 (second compound 3.16 µM) was over 10000 nM and the IC50 (second compound 10 µM) was over 10000 nM. It also gave a viability, T/C [1] of 99.2%, a viability, T/C [2] of 84.5% and a viability, T/C [3] of 104%. The viability, T/C [4] was 87%, the viability, T/C [5] was 91.5% and the viability, T/C [6] was 66.1%. The viability, T/C [7] was 113%, the viability, T/C [8] was 112% and the viability, T/C [9] was 101%. It also gave a viability, T/C [10] of 89.2%, a viability, T/C [11] of 97.6% and a viability, T/C [12] of 55.4%. It also gave a viability, T/C [13] of 96.3%, a viability, T/C [14] of 106% and a viability, T/C [15] of 89.9%. The viability, T/C [16] was 69.6%, the viability, T/C [17] was 104% and the viability, T/C [18] was 83.8%. For the same molecule, the viability, T/C [19] was 106%, the viability, T/C [20] was 103% and the viability, T/C [21] was 91.2%. It also gave a viability, T/C [22] of 89.5%, a viability, T/C [23] of 96.5% and a viability, T/C [24] of 79.9%. The viability, T/C [25] was 92.8%, the viability, T/C [26] was 85.9% and the viability, T/C [27] was 98.3%. The viability, T/C [28] was 106%, the viability, T/C [29] was 103% and the viability, T/C [30] was 84%. For the same molecule, the viability, T/C [31] was 86.8%, the viability, T/C [32] was 106% and the viability, T/C [33] was 105%. The viability, T/C [34] was 96.6%, the viability, T/C [35] was 107% and the viability, T/C [36] was 70.9%.

CCCS(=O)(=O)Nc1ccc(F)c(C(=O)c2c[nH]c3ncc(-c4ccc(Cl)cc4)cc23)c1F + COC1C(OC(N)=O)C(O)C(Oc2ccc3c(O)c(NC(=O)c4ccc(O)c(CC=C(C)C)c4)c(=O)oc3c2C)OC1(C)C showed an IC50 (second compound 0.0316 µM) of over 10000 nM, an IC50 (second compound 0.1 µM) of over 10000 nM and an IC50 (second compound 0.316 µM) of over 10000 nM. It also gave an IC50 (second compound 1 µM) of over 10000 nM, an IC50 (second compound 3.16 µM) of over 10000 nM and an IC50 (second compound 10 µM) of over 10000 nM. For the same molecule, the viability, T/C [1] was 110%, the viability, T/C [2] was 98.7% and the viability, T/C [3] was 106%. The viability, T/C [4] was 105%, the viability, T/C [5] was 102% and the viability, T/C [6] was 104%. The viability, T/C [7] was 82%, the viability, T/C [8] was 109% and the viability, T/C [9] was 97.5%. It also gave a viability, T/C [10] of 85.5%, a viability, T/C [11] of 129% and a viability, T/C [12] of 109%. It also gave a viability, T/C [13] of 96.9%, a viability, T/C [14] of 94.9% and a viability, T/C [15] of 121%. The viability, T/C [16] was 130%, the viability, T/C [17] was 97.9% and the viability, T/C [18] was 108%. The viability, T/C [19] was 105%, the viability, T/C [20] was 103% and the viability, T/C [21] was 121%. The viability, T/C [22] was 95.9%, the viability, T/C [23] was 105% and the viability, T/C [24] was 84.8%. For the same molecule, the viability, T/C [25] was 102%, the viability, T/C [26] was 124% and the viability, T/C [27] was 99.7%. For the same molecule, the viability, T/C [28] was 105%, the viability, T/C [29] was 89.9% and the viability, T/C [30] was 97.6%. The viability, T/C [31] was 94.2%, the viability, T/C [32] was 118% and the viability, T/C [33] was 95.2%. For the same molecule, the viability, T/C [34] was 111%, the viability, T/C [35] was 113% and the viability, T/C [36] was 110%.

With Cn1ncnc1[C@H]1c2n[nH]c(=O)c3cc(F)cc(c23)N[C@@H]1c1ccc(F)cc1 + COC1C(OC(N)=O)C(O)C(Oc2ccc3c(O)c(NC(=O)c4ccc(O)c(CC=C(C)C)c4)c(=O)oc3c2C)OC1(C)C the IC50 (second compound 0.0316 µM) was over 100 nM, the IC50 (second compound 0.1 µM) was over 100 nM and the IC50 (second compound 0.316 µM) was over 100 nM. The IC50 (second compound 1 µM) was over 100 nM, the IC50 (second compound 3.16 µM) was over 100 nM and the IC50 (second compound 10 µM) was over 100 nM. It also gave a viability, T/C (second compound 0.0316 µM, first compound 0.000316 µM) of 122%, a viability, T/C (second compound 0.0316 µM, first compound 0.001 µM) of 107% and a viability, T/C (second compound 0.0316 µM, first compound 0.00316 µM) of 104%. For the same molecule, the viability, T/C (second compound 0.0316 µM, first compound 0.01 µM) was 85.5%, the viability, T/C [1] was 79.3% and the viability, T/C [2] was 107%. It also gave a viability, T/C (second compound 0.1 µM, first compound 0.000316 µM) of 99.8%, a viability, T/C (second compound 0.1 µM, first compound 0.001 µM) of 117% and a viability, T/C (second compound 0.1 µM, first compound 0.00316 µM) of 97.7%. For the same molecule, the viability, T/C (second compound 0.1 µM, first compound 0.01 µM) was 83.8%, the viability, T/C [7] was 105% and the viability, T/C [8] was 102%. It also gave a viability, T/C (second compound 0.316 µM, first compound 0.000316 µM) of 95%, a viability, T/C (second compound 0.316 µM, first compound 0.001 µM) of 122% and a viability, T/C (second compound 0.316 µM, first compound 0.00316 µM) of 75.4%. For the same molecule, the viability, T/C (second compound 0.316 µM, first compound 0.01 µM) was 108%, the viability, T/C [13] was 109% and the viability, T/C [14] was 110%. For the same molecule, the viability, T/C (second compound 1 µM, first compound 0.000316 µM) was 98.1%, the viability, T/C (second compound 1 µM, first compound 0.001 µM) was 117% and the viability, T/C (second compound 1 µM, first compound 0.00316 µM) was 94.2%. The viability, T/C (second compound 1 µM, first compound 0.01 µM) was 106%, the viability, T/C [19] was 71.5% and the viability, T/C [20] was 109%. The viability, T/C (second compound 3.16 µM, first compound 0.000316 µM) was 95.9%, the viability, T/C (second compound 3.16 µM, first compound 0.001 µM) was 109% and the viability, T/C (second compound 3.16 µM, first compound 0.00316 µM) was 92.1%. The viability, T/C (second compound 3.16 µM, first compound 0.01 µM) was 102%, the viability, T/C [25] was 109% and the viability, T/C [26] was 110%. For the same molecule, the viability, T/C (second compound 10 µM, first compound 0.000316 µM) was 95.7%, the viability, T/C (second compound 10 µM, first compound 0.001 µM) was 110% and the viability, T/C (second compound 10 µM, first compound 0.00316 µM) was 121%. For the same molecule, the viability, T/C (second compound 10 µM, first compound 0.01 µM) was 98%, the viability, T/C [31] was 113% and the viability, T/C [32] was 95.8%.
